Data: article PMC7060258 (Scientific Reports, 2020)
No end group written: not given here.

Assays:
trypsin = experiment: SPR interaction with trypsin; format: binding; conditions: for SPR binding to trypsin (in words): peptide immobilized on CM4 chip; for ka, association rate constant / kd, dissociation rate constant: protease 1 nM to 5 μM; for Kd: read-out: KD, dissociation constant
Description: (§1) The interaction of the peptides with serine proteinases (trypsin, α-chymotrypsin, human neutrophil elastase, pancreatic kallikrein and cathepsin G) was studied using the surface plasmon resonance (SPR) method. The peptides were immobilized on a CM4 sensor chip. […] Kinetic parameters were calculated at 25 °C. Obtained data indicated the formation of tight complexes and eliminated non-specific binding (Table 2).
(§2) The study of the interaction of serine proteinases with rHCIQ2c1 and rHCIQ4c7 was performed on SPR biosensor Biacore 3000 (GE Healthcare, USA) running under the program “Biacore 3000 Control Software v.1.0”. The evaluation of data was carried out using “Biacore Evaluation v.4.1”. Peptides were covalent immobilized on carboxymethylated surface of the Biacore CM4 sensor chip (GE Healthcare, USA) activated by EDC/NHS (N-hydroxysuccinimide/1-ethyl-3-(3-dimethylaminopropyl)carbodiimide hydrochloride) mixture by the injection of peptide solution (100 µg/ml) in 10 mM sodium acetate (pH 5.5) during 10 min with flow rate 5 µl/min. Quantities of immobilized peptides were 970 RU (resonance units, 1 RU corresponds 1 pg peptide) for rHCIQ2c1 and 460 RU for rHCIQ4c7. In all of the experiments, the flow cell 1 (Fc1) without the immobilized polypeptides was considered as the reference cell for the correction of the signal responses. HBS (HEPES buffered saline-NaCl): 0.15 M NaCl, 0.01 M HEPES, pH 7.4 (cat. no. BR-1003-69, GE Healthcare, USA) was used as the running buffer for the SPR assays. Protease solutions at concentrations from 1 nM to 5 μM were passed through measuring and control biosensor cells at 25 °C during 5 min with a flow rate 5 µl/min. Further complex breakdown was recorded during at most 10 min. After each cycle of SPR measurement, the sensing surface was regenerated by the injection of 50 mM NaOH for 0.5 min at a flow rate of 50 μl/min. Changes in Gibbs free energy (ΔG) at 25 °C were calculated by the following equation:1 ΔG=RTlnKD, where KD is the dissociation constant. Changes in enthalpy (ΔH) and entropic term (−TΔS) were calculated from the linear equation:2 ΔG=ΔH−TΔS, using the liner approximation of temperature dependence of ΔG (Van’t Hoff diagram).

α-chymotrypsin = experiment: SPR interaction with α-chymotrypsin; format: binding; conditions: for SPR binding to α-chymotrypsin (in words): peptide immobilized on CM4 chip
Description: as §1, §2

pancreatic kallikrein = experiment: SPR interaction with pancreatic kallikrein; format: binding; conditions: for SPR binding to kallikrein (in words): peptide immobilized on CM4 chip
Description: as §1, §2

[1] = test system: human neutrophil elastase; experiment: SPR interaction with neutrophil elastase; format: binding; conditions: for SPR binding to neutrophil elastase (in words): peptide immobilized on CM4 chip; for ka, association rate constant / kd, dissociation rate constant: protease 1 nM to 5 μM
Description: as §1, §2

cathepsin G = experiment: SPR interaction with cathepsin G; format: binding; conditions: for SPR binding to cathepsin G (in words): peptide immobilized on CM4 chip
Description: as §1, §2

rKv1.1 = experiment: Two-electrode voltage clamp, rKv1.1 in X. laevis oocytes; format: cell-based; conditions: 10 μM, 18–22 °C, n ≥ 3
Description: (§3) For the expression of the voltage-gated potassium channels (rKv1.1, rKv1.2, hKv1.3, rKv1.4, rKv1.5, rKv1.6, Shaker IR and hERG) in X. laevis oocytes, the linearized plasmids were transcribed using the T7 or SP6 mMESSAGE-mMACHINE transcription kit (Ambion, USA). The harvesting of stage V–VI oocytes from an anaesthetized female X. laevis frog was previously described. Oocytes were injected with 50 nl of cRNA at a concentration of 1 ng/nl using a micro-injector (Drummond Scientific, USA). The oocytes were incubated in a solution containing (in mM): NaCl, 96; KCl, 2; CaCl2, 1.8; MgCl2, 2; HEPES, 5 (pH 7.4), supplemented with 50 mg/l gentamycin sulfate.
(§4) Two-electrode voltage-clamp recordings were performed at room temperature (18–22 °C) using a Geneclamp 500 amplifier (Molecular Devices, USA) controlled by a pClamp data acquisition system (Axon Instruments, USA), as described in[47]. Whole cell currents from oocytes were recorded 1–4 days after injection. Bath solution composition was ND96 (in mM): NaCl, 96; KCl, 2; CaCl2, 1.8; MgCl2, 2 and HEPES, 5 (pH 7.4). Voltage and current electrodes were filled with 3 M KCl. The resistances of both electrodes were kept between 0.7 and 1.5 MΩ. […] All data were analysed using pClamp Clampfit 10.0 (Molecular Devices, Downingtown, PA, USA) and Origin 7.5 software (Originlab, Northampton, MA, USA).

rKv1.2 = experiment: Two-electrode voltage clamp, rKv1.2 in X. laevis oocytes; format: cell-based; conditions: 10 μM, 18–22 °C, n ≥ 3
Description: as §3, §4

hKv1.3 = experiment: Two-electrode voltage clamp, hKv1.3 in X. laevis oocytes; format: cell-based; conditions: 10 μM, 18–22 °C, n ≥ 3
Description: as §3, §4

rKv1.5 = experiment: Two-electrode voltage clamp, rKv1.5 in X. laevis oocytes; format: cell-based; conditions: 10 μM, 18–22 °C, n ≥ 3
Description: as §3, §4

rKv1.6 = experiment: Two-electrode voltage clamp, rKv1.6 in X. laevis oocytes; format: cell-based; conditions: 10 μM, 18–22 °C, n ≥ 3
Description: as §3, §4

Shaker IR = experiment: Two-electrode voltage clamp, Shaker IR in X. laevis oocytes; format: cell-based, Drosophila; conditions: 10 μM, 18–22 °C, n ≥ 3
Description: as §3, §4

hERG = experiment: Two-electrode voltage clamp, hERG in X. laevis oocytes; format: cell-based; conditions: 10 μM, 18–22 °C, n ≥ 3
Description: as §3, §4

[2] = trypsin, SPR Biacore 3000, peptide immobilized on CM4 chip, HBS pH 7.4, 25 °C
[3] = α-chymotrypsin, SPR Biacore 3000, peptide immobilized on CM4 chip, HBS pH 7.4, 25 °C, protease 1 nM to 5 μM
[4] = kallikrein, SPR Biacore 3000, peptide immobilized on CM4 chip, HBS pH 7.4, 25 °C, protease 1 nM to 5 μM
[5] = neutrophil elastase, SPR Biacore 3000, peptide immobilized on CM4 chip, HBS pH 7.4, 25 °C
[6] = cathepsin G, SPR Biacore 3000, peptide immobilized on CM4 chip, HBS pH 7.4, 25 °C, protease 1 nM to 5 μM

| Substance | SPR binding to trypsin (in words) (trypsin; SPR) | ka, association rate constant (trypsin; [2]) [s/M] | kd, dissociation rate constant (trypsin; [2]) [s⁻¹] | Kd (trypsin; [2]) [nM] | SPR binding to α-chymotrypsin (in words) (α-chymotrypsin) | SPR binding to kallikrein (in words) (pancreatic kallikrein) | SPR binding to neutrophil elastase (in words) ([1]; SPR) | KA, association constant [1, 5] [M⁻¹] | ka, association rate constant [1, 5] [s/M] | kd, dissociation rate constant [1, 5] [s⁻¹] | SPR binding to cathepsin G (in words) (cathepsin G) | Activity on Kv1.1 (rKv1.1) | Activity on Kv1.2 (rKv1.2) | Activity on Kv1.3 (hKv1.3) | Activity on Kv1.5 (rKv1.5) | Activity on Kv1.6 (rKv1.6) | Activity on Shaker IR (Shaker IR) | Activity on hERG (hERG) | further results |
| --- | --- | --- | --- | --- | --- | --- | --- | --- | --- | --- | --- | --- | --- | --- | --- | --- | --- | --- | --- |
| rHCIQ2c1: recombinant Kunitz-peptide of Heteractis crispa, most prevalent isoform, mature peptide 58 aa, expressed in E. coli (IQGNICSEPKKVGRCRGSFPRFYFDSETGKCTPFIYGGCGGNGNNFETLHACRAICRA; ends and bridges not checked; cysteine pairing not given here) | specifically binds to all target proteinases | 20500 | 0.00817 | 0.251 | specifically binds to all target proteinases | specifically binds to all target proteinases | specifically binds to all target proteinases | 7.9e+06 | 68000 | 0.00861 | specifically binds to all target proteinases | neither 10 μM of rHCIQ2c1 nor rHCIQ4c7 exerted any activity on the Kv channels | neither 10 μM of rHCIQ2c1 nor rHCIQ4c7 exerted any activity on the Kv channels | neither 10 μM of rHCIQ2c1 nor rHCIQ4c7 exerted any activity on the Kv channels | neither 10 μM of rHCIQ2c1 nor rHCIQ4c7 exerted any activity on the Kv channels | neither 10 μM of rHCIQ2c1 nor rHCIQ4c7 exerted any activity on the Kv channels | neither 10 μM of rHCIQ2c1 nor rHCIQ4c7 exerted any activity on the Kv channels | neither 10 μM of rHCIQ2c1 nor rHCIQ4c7 exerted any activity on the Kv channels | KA, association constant (α-chymotrypsin; α-chymotrypsin, SPR Biacore 3000, peptide immobilized on CM4 chip, HBS pH 7.4, 25 °C): 1.03e+07 M⁻¹; ka, association rate constant (α-chymotrypsin; [3]): 76900 s/M; kd, dissociation rate constant (α-chymotrypsin; [3]): 0.00749 s⁻¹; Kd (α-chymotrypsin; α-chymotrypsin, SPR Biacore 3000, peptide immobilized on CM4 chip, HBS pH 7.4, 25 °C, read-out: KD, dissociation constant): 97.4 nM; KA, association constant (pancreatic kallikrein; kallikrein, SPR Biacore 3000, peptide immobilized on CM4 chip, HBS pH 7.4, 25 °C): 2.04e+06 M⁻¹; ka, association rate constant (pancreatic kallikrein; [4]): 49400 s/M; kd, dissociation rate constant (pancreatic kallikrein; [4]): 0.00379 s⁻¹; KA, association constant (cathepsin G; cathepsin G, SPR Biacore 3000, peptide immobilized on CM4 chip, HBS pH 7.4, 25 °C): 3.58e+09 M⁻¹; ka, association rate constant (cathepsin G; [6]): 1.29e+06 s/M; kd, dissociation rate constant (cathepsin G; [6]): 0.000359 s⁻¹; Kd (cathepsin G; cathepsin G, SPR Biacore 3000, peptide immobilized on CM4 chip, HBS pH 7.4, 25 °C, read-out: KD, dissociation constant): 0.279 nM |
| rHCIQ4c7: recombinant Kunitz-peptide of Heteractis crispa, isoform with the rare substitution Gly17Glu | bounds to trypsin and elastase only | 22500 | 0.00466 | 207 | bounds to trypsin and elastase only | bounds to trypsin and elastase only | bounds to trypsin and elastase only | 1.05e+06 | 11900 | 0.0114 | bounds to trypsin and elastase only | neither 10 μM of rHCIQ2c1 nor rHCIQ4c7 exerted any activity on the Kv channels | neither 10 μM of rHCIQ2c1 nor rHCIQ4c7 exerted any activity on the Kv channels | neither 10 μM of rHCIQ2c1 nor rHCIQ4c7 exerted any activity on the Kv channels | neither 10 μM of rHCIQ2c1 nor rHCIQ4c7 exerted any activity on the Kv channels | neither 10 μM of rHCIQ2c1 nor rHCIQ4c7 exerted any activity on the Kv channels | neither 10 μM of rHCIQ2c1 nor rHCIQ4c7 exerted any activity on the Kv channels | neither 10 μM of rHCIQ2c1 nor rHCIQ4c7 exerted any activity on the Kv channels | KD with trypsin relative to rHCIQ2c1 (trypsin; SPR, 25 °C): higher by three orders than for rHCIQ2c1; KA, association constant (trypsin; [2]): 4.83e+06 M⁻¹; KD with elastase relative to rHCIQ2c1 ([1]; SPR, 25 °C): binding with elastase differed insignificantly; Kd ([1]; neutrophil elastase, SPR Biacore 3000, peptide immobilized on CM4 chip, HBS pH 7.4, 25 °C, read-out: KD, dissociation constant): 955 nM |
